From patent US4192896A, “Method of using dialkylphenols in the treatment of mycoplasma diseases” (priority 1979, dated 1980)

Key:
M. pneumoniae [1] = assay: Tetrazolium reduction by hamster tracheal explants infected with M. pneumoniae; type: cell-based; settings: for Tetrazolium Reduction 7 days post infection: Table 4, infecting titer 6 × 10^6 CFU/ml
Description: (§1) The trachea rings were infected with M. pneumonia, strain PI 1428 (originally obtained from Dr. Robert Chanock, National Institutes of Health, Bethesda, Md.) which was used in the 10th to 12th passage and was grown on G-199 medium. Tracheal explants were infected with logarithmically growing cells using methods described by Gabridge, et al. Except where otherwise noted, groups of from 3 to 6 rings were preincubated for one hour in MEM with or without an appropriate amount of 2,4-dimethylphenol prior to the addition of mycoplasmas. Following exposure to M. pneumoniae for two hours, the rings were rinsed twice in phosphate buffered saline and then placed in a sterile Petri dish containing MEM and, where indicated, the required amount of 2,4-dimethylphenol or 2,4-DMP as used herein. Cultures were incubated at 36° in 5% carbon dioxide and scored daily for RA.
(§2) Time Course: In the studies reported thus far, tracheal explants were pretreated with 2,4-DMP for one hour before exposure to M. pneumoniae. Some insight into the nature, that is, the site or mode of action, of this protective phenomenon may be gained by altering the time at which 2,4-DMP is added to the culture media.

M. pneumoniae [2] = assay: Protection of tracheal explants against the M. pneumoniae infective process (overall, in words); type: cell-based
Description: (§3) Adult golden hamsters (approximately 140 g. male and female) were used as the tissue source. Animals appearing to be disease-free were selected. Tracheas were removed aseptically and sliced into rings. The rings were rinsed and then transfered into sterile Petri dishes containing a shallow layer of minimal essential medium (MEM, with glutamine, NaHCO3, 10% horse serum and 500 units of penicillin G/ml). These organ cultures were incubated for 24 hours at 36° C. in 5% carbon dioxide and then scored for "relative activity" (RA), a measure of explant viability. "Relative Activity" (0 to 300) is the product of the percentage of the epithelial layer which is intact (0 to 100) and the relative vigor of ciliary beating (0 to 3).
as §1, §2

M. pneumoniae [3] = assay: Surface morphology of tracheal rings exposed to M. pneumoniae; type: cell-based; settings: at least 10^-9 M
Description: as §1
(§4) Infection Studies: M. pneumoniae attaches to the surface (as used herein the surface refers to in luminal epithelial lining) of the tracheal tissue within an hour or two following exposure. Decreases in the vigor of ciliary activity and loss of epithelial cells are evident within 24 to 48 hours post-infection. In most cases, little or no ciliary activity remains by the sixth or seventh day.

[4] = tested on: uninfected hamster tracheal explants; assay: Electron microscopic and histopathic examination of uninfected hamster tracheal explants exposed to 2,4-DMP; type: cell-based, golden hamster; settings: 10^-3 and 10^-4 M
Description: as §3

M. pneumoniae [5] = assay: Relative activity of hamster tracheal explants infected with M. pneumoniae; type: cell-based; settings: for Relative Activity Days Following Infection With M. Pneumoniae / Relative Activity 7 days post infection: infecting titer 6 × 10^6 CFU/ml; for Relative Activity 7 days post infection: Table 4
Description: as §3, §1, §4, §2

[6] = culture A, 2,4 DMP added at -1 hours
[7] = culture B, 2,4 DMP added at 0 hours
[8] = culture C, 2,4 DMP added at 1 hours
[9] = culture D, 2,4 DMP added at 2 hours
[10] = culture E, 2,4 DMP added at 6 hours
[11] = culture F, 2,4 DMP added at 24 hours
[12] = culture G, 2,4 DMP added at 48 hours
[13] = culture H, 2,4 DMP added at 72 hours

Cc1ccc(O)c(C)c1 [2,4-DMP, 2,4-dimethylphenol]
Tetrazolium Reduction 7 days post infection (M. pneumoniae [1]; 10^-8 moles/liter): 1.066 ± 0.035 | Tetrazolium Reduction 7 days post infection (M. pneumoniae [1]; 10^-9 moles/liter): 1.016 ± 0.029 | Tetrazolium Reduction 7 days post infection (M. pneumoniae [1]; 10^-10 moles/liter): 0.543 ± 0.142 | Tetrazolium Reduction 7 days post infection (M. pneumoniae [1]; 10^-22 moles/liter (so in the source)): 0.453 ± 0.033 | ability to reduce tetrazolium of rings exposed to M. pneumoniae compared with uninfected controls (M. pneumoniae [1]; at least 10^-9 M): indistinguishable from uninfected controls | Tetrazolium Reduction 7 Days Following Infection With M. Pneumoniae (M. pneumoniae [1]; [6]): 1.071 ± 0.065 OD/mg | Tetrazolium Reduction 7 Days Following Infection With M. Pneumoniae (M. pneumoniae [1]; [7]): 1.068 ± 0.050 OD/mg | Tetrazolium Reduction 7 Days Following Infection With M. Pneumoniae (M. pneumoniae [1]; [8]): 1.062 ± 0.039 OD/mg | Tetrazolium Reduction 7 Days Following Infection With M. Pneumoniae (M. pneumoniae [1]; [9]): 0.893 ± 0.055 OD/mg | Tetrazolium Reduction 7 Days Following Infection With M. Pneumoniae (M. pneumoniae [1]; [10]): 0.722 ± 0.032 OD/mg | Tetrazolium Reduction 7 Days Following Infection With M. Pneumoniae (M. pneumoniae [1]; [11]): 0.386 ± 0.030 OD/mg | Tetrazolium Reduction 7 Days Following Infection With M. Pneumoniae (M. pneumoniae [1]; [12]): 0.379 ± 0.051 OD/mg | Tetrazolium Reduction 7 Days Following Infection With M. Pneumoniae (M. pneumoniae [1]; [13]): 0.381 ± 0.048 OD/mg | protective effects on delayed addition (M. pneumoniae [2]; 2,4-DMP withheld until attachment is essentially complete): significantly reduced or abolished completely | alteration of the infectious process (M. pneumoniae [2]; concentrations less than or equal to 10^-10 M): failed to alter the infectious process | inhibiting or altering the course of the infective process, relative to the other dimethylphenol isomers (M. pneumoniae [2]; conditions of these studies and at the concentrations tested): more effective than any of the other isomers | effect on the course of infection of explants exposed to M. pneumoniae (M. pneumoniae [2]; very low concentrations in the culture media): dramatically alters the usual course of events | surface morphology of rings exposed to M. pneumoniae compared with uninfected controls (M. pneumoniae [3]): indistinguishable from uninfected controls | electron microscopic and histopathic examination of epithelium [4]: destruction of their epithelium | Relative Activity Days Following Infection With M. Pneumoniae (M. pneumoniae [5]; 10^-8 moles/liter, day 1): 270 ± 0 | Relative Activity Days Following Infection With M. Pneumoniae (M. pneumoniae [5]; 10^-8 moles/liter, day 2): 270 ± 0 | Relative Activity Days Following Infection With M. Pneumoniae (M. pneumoniae [5]; 10^-8 moles/liter, day 3): 260 ± 16 | Relative Activity Days Following Infection With M. Pneumoniae (M. pneumoniae [5]; 10^-8 moles/liter, day 4): 260 ± 16 | Relative Activity Days Following Infection With M. Pneumoniae (M. pneumoniae [5]; 10^-8 moles/liter, day 5): 260 ± 16 | Relative Activity Days Following Infection With M. Pneumoniae (M. pneumoniae [5]; 10^-8 moles/liter, day 6): 255 ± 16 | Relative Activity Days Following Infection With M. Pneumoniae (M. pneumoniae [5]; 10^-8 moles/liter, day 7): 255 ± 16 | Relative Activity Days Following Infection With M. Pneumoniae (M. pneumoniae [5]; 10^-10 moles/liter, day 1): 260 ± 16 | Relative Activity Days Following Infection With M. Pneumoniae (M. pneumoniae [5]; 10^-10 moles/liter, day 2): 255 ± 16 | Relative Activity Days Following Infection With M. Pneumoniae (M. pneumoniae [5]; 10^-10 moles/liter, day 3): 240 ± 19 | Relative Activity Days Following Infection With M. Pneumoniae (M. pneumoniae [5]; 10^-10 moles/liter, day 4): 175 ± 23 | Relative Activity Days Following Infection With M. Pneumoniae (M. pneumoniae [5]; 10^-10 moles/liter, day 5): 150 ± 19 | Relative Activity Days Following Infection With M. Pneumoniae (M. pneumoniae [5]; 10^-10 moles/liter, day 6): 135 ± 16 | Relative Activity Days Following Infection With M. Pneumoniae (M. pneumoniae [5]; 10^-10 moles/liter, day 7): 115 ± 23 | Relative Activity 7 days post infection (M. pneumoniae [5]; 10^-6 moles/liter): 255 ± 16 | Relative Activity 7 days post infection (M. pneumoniae [5]; 10^-7 moles/liter): 255 ± 16 | Relative Activity 7 days post infection (M. pneumoniae [5]; 10^-8 moles/liter): 260 ± 10 | Relative Activity 7 days post infection (M. pneumoniae [5]; 10^-9 moles/liter): 263 ± 12 | Relative Activity 7 days post infection (M. pneumoniae [5]; 10^-10 moles/liter): 114 ± 22 | Relative Activity 7 days post infection (M. pneumoniae [5]; 10^-14 moles/liter): 125 ± 23 | Relative Activity 7 days post infection (M. pneumoniae [5]): 124 ± 18 | RA of rings exposed to M. pneumoniae compared with uninfected controls (M. pneumoniae [5]; at least 10^-9 M): indistinguishable from uninfected controls | Relative Activity 7 Days Following Infection With M. Pneumoniae (M. pneumoniae [5]; [6]): 268 ± 6 | Relative Activity 7 Days Following Infection With M. Pneumoniae (M. pneumoniae [5]; [7]): 268 ± 6 | Relative Activity 7 Days Following Infection With M. Pneumoniae (M. pneumoniae [5]; [8]): 265 ± 8 | Relative Activity 7 Days Following Infection With M. Pneumoniae (M. pneumoniae [5]; [9]): 220 ± 23 | Relative Activity 7 Days Following Infection With M. Pneumoniae (M. pneumoniae [5]; [10]): 188 ± 23 | Relative Activity 7 Days Following Infection With M. Pneumoniae (M. pneumoniae [5]; [11]): 98 ± 16 | Relative Activity 7 Days Following Infection With M. Pneumoniae (M. pneumoniae [5]; [12]): 95 ± 12 | Relative Activity 7 Days Following Infection With M. Pneumoniae (M. pneumoniae [5]; [13]): 92 ± 15
